According to US20260274892A1, “MACROCYCLIC BROAD SPECTRUM ANTIBIOTICS” (RQx Pharmaceuticals, Inc., priority 2017, published 2026):

Experiments:
[1] = tested on: Escherichia coli ATCC 25922; experiment: Minimum inhibitory concentration (MIC), CLSI broth micro-dilution, E. coli; assay type: cell-based; settings: Escherichia coli, ATCC25922, 22 h, Table 6, cation adjusted Mueller Hinton Broth + 0.002% Tween-80, 35° C.
Method in brief: (§1)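 Antibacterial potency is measured as MIC by the CLSI broth dilution method. Bacteria at OD600 0.0005 in Tween-80-supplemented cation-adjusted Mueller Hinton broth face ten twofold compound dilutions for 22 h at 35° C.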

[2] = tested on: Methicillin Resistant Staphylococcus aureus strain USA 200; experiment: Minimum inhibitory concentration (MIC), CLSI broth micro-dilution, S. aureus; assay type: cell-based; settings: Staphylococcus aureus, MRSA / USA200; Table 6; MRSA USA 200; cation adjusted Mueller Hinton Broth + 0.002% Tween-80; 35° C., 22 hours
Method in brief: as §1

## Cc1nc(-c2ccc(C3(C)COC3)cc2)ncc1C(=O)N[C@@H](CCN)C(=O)N(C)[C@@H]1C(=O)N[C@@H](C)C(=O)N[C@H](C(=O)NCC#N)Cc2ccc(OCCN)c(c2)-c2cc1ccc2OCCN (racemic) [Compound 238, rac-(8S,11S,14S)-3,18-bis(2-aminoethoxy)-N-(cyanomethyl)-11-methyl-14-[methyl-[rac-(2S)-4-amino-2-[[4-methyl-2-[4-(3-methyloxetan-3-yl)phenyl]pyrimidine-5-carbonyl]amino]butanoyl]amino]-10,13-dioxo-9,12-diazatricyclo[13.3.1.12,6]icosa-1(18),2(20),3,5,15(19),16-hexaene-8-carboxamide]
[1]
  MIC: 2.1 µM
[2]
  MIC: 0.53 µM

## Cc1nc(-c2ccc(C3C4CC5CC(C4)CC3C5)cc2)ncc1C(=O)N[C@@H](CCN)C(=O)N(C)[C@@H]1C(=O)N[C@@H](C)C(=O)N[C@H](C(=O)NCC#N)Cc2ccc(OCCN)c(c2)-c2cc1ccc2OCCN (mixture of isomers) [Compound 239, rac-(8S,11S,14S)-3,18-bis(2-aminoethoxy)-N-(cyanomethyl)-11-methyl-14-[methyl-[rac-(2S)-2-[[2-[4-(2-adamantyl)phenyl]-4-methyl-pyrimidine-5-carbonyl]amino]-4-amino-butanoyl]amino]-10,13-dioxo-9,12-diazatricyclo[13.3.1.12,6]icosa-1(18),2(20),3,5,15(19),16-hexaene-8-carboxamide]
[1]
  MIC: 0.12 µM
[2]
  MIC: 0.015 µM

## CCCCCCCc1ccc(-c2ncc(C(=O)N[C@@H](CCN)C(=O)N(C)[C@@H]3C(=O)N[C@@H](C)C(=O)N[C@H](C(=O)NCC#N)Cc4ccc(OCCN)c(c4)-c4cc3ccc4OCCN)c(C)n2)cc1 (racemic) [Compound 240, rac-(8S,11S,14S)-3,18-bis(2-aminoethoxy)-N-(cyanomethyl)-11-methyl-14-[methyl-[rac-(2S)-4-amino-2-[[2-(4-heptylphenyl)-4-methyl-pyrimidine-5-carbonyl]amino]butanoyl]amino]-10,13-dioxo-9,12-diazatricyclo[13.3.1.12,6]icosa-1(18),2(20),3,5,15(19),16-hexaene-8-carboxamide]
[1]
  MIC: 0.13 µM
[2]
  MIC: 0.012 µM

## CCCCOc1ccc(-c2ncc(C(=O)N[C@@H](CCN)C(=O)N(C)[C@@H]3C(=O)N[C@@H](C)C(=O)N[C@H](C(=O)NCC#N)Cc4ccc(OCCN)c(c4)-c4cc3ccc4OCCN)c(C)n2)c(C)c1 (racemic) [Compound 242, rac-(8S,11S,14S)-3,18-bis(2-aminoethoxy)-N-(cyanomethyl)-11-methyl-14-[methyl-[rac-(2S)-4-amino-2-[[2-(4-butoxy-2-methyl-phenyl)-4-methyl-pyrimidine-5-carbonyl]amino]butanoyl]amino]-10,13-dioxo-9,12-diazatricyclo[13.3.1.12,6]icosa-1(18),2(20),3,5,15(19),16-hexaene-8-carboxamide]
[1]
  MIC: 0.39 µM
[2]
  MIC: 0.016 µM

## CCCCOc1c(C)cc(-c2ncc(C(=O)N[C@@H](CCN)C(=O)N(C)[C@@H]3C(=O)N[C@@H](C)C(=O)N[C@H](C(=O)NCC#N)Cc4ccc(OCCN)c(c4)-c4cc3ccc4OCCN)c(C)n2)cc1C (racemic) [Compound 243, rac-(8S,11S,14S)-3,18-bis(2-aminoethoxy)-N-(cyanomethyl)-11-methyl-14-[methyl-[rac-(2S)-4-amino-2-[[2-(4-butoxy-3,5-dimethyl-phenyl)-4-methyl-pyrimidine-5-carbonyl]amino]butanoyl]amino]-10,13-dioxo-9,12-diazatricyclo[13.3.1.12,6]icosa-1(18),2(20),3,5,15(19),16-hexaene-8-carboxamide]
[1]
  MIC: 0.13 µM
[2]
  MIC: 0.008 µM
